The test system of this assay is Cytotoxicity. The assay can be described thus: STAT3 inhibitors, late-stage profile, late-stage follow-up, cell-based, STAT1 panel, qPCR, cytotoxicity (AID 2078). Conditions: STAT3/STAT1 inhibition panel, cell reporter assay.

Molecules are shown by their SMILES.

Regarding `c1ccc(CC2CCN(c3ncnc4sccc34)CC2)cc1`, the CC50 (as a rule, the concentration giving 50% cytotoxicity) was above 55.7 µM.

The values above are taken from PubChem BioAssay AID2078 (The Scripps Research Institute Molecular Screening Center, 2009).
